Data reported in the supplement of paper PMC10307832.

How the values were obtained:
Experiment in all cases: relative viability (nuclei count vs DMSO), 5 days (fraction); higher = more cells survive
Carfilzomib + Pictilisib = compound: CC(C)C[C@H](NC(=O)[C@H](CCc1ccccc1)NC(=O)CN1CCOCC1)C(=O)N[C@@H](Cc1ccccc1)C(=O)N[C@@H](CC(C)C)C(=O)[C@@]1(C)CO1 [Carfilzomib] + CS(=O)(=O)N1CCN(Cc2cc3nc(-c4cccc5[nH]ncc45)nc(N4CCOCC4)c3s2)CC1 [Pictilisib] (partner 1 µM)
How it was run: (§1)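 Lung cancer cell lines were seeded in 1536-well plates and dosed by pin tool the next day, with either a single drug or a fixed anchor-drug dose combined with five library-drug doses (not always all listed) spaced in √10 steps. Five days later, one step fixed the cells and stained their nuclei (final 0.05% Triton X-100, 1% formaldehyde, 1 ug/ml Hoechst), and nuclei were counted on 4× images. Relative viability is the nuclei count in treated wells divided by the count in vehicle wells, and each value is the median of duplicate plates.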

Crizotinib + Vorinostat = compound: C[C@@H](Oc1cc(-c2cnn(C3CCNCC3)c2)cnc1N)c1c(Cl)ccc(F)c1Cl [Crizotinib] + O=C(CCCCCCC(=O)Nc1ccccc1)NO [Vorinostat] (partner 1 µM)
How it was run: as §1

Carfilzomib + Olaparib = compound: CC(C)C[C@H](NC(=O)[C@H](CCc1ccccc1)NC(=O)CN1CCOCC1)C(=O)N[C@@H](Cc1ccccc1)C(=O)N[C@@H](CC(C)C)C(=O)[C@@]1(C)CO1 [Carfilzomib] + O=C(c1cc(Cc2n[nH]c(=O)c3ccccc23)ccc1F)N1CCN(C(=O)C2CC2)CC1 [Olaparib] (partner 8 µM)
How it was run: as §1

Crizotinib + Foretinib = compound: C[C@@H](Oc1cc(-c2cnn(C3CCNCC3)c2)cnc1N)c1c(Cl)ccc(F)c1Cl [Crizotinib] + COc1cc2c(Oc3ccc(NC(=O)C4(C(=O)Nc5ccc(F)cc5)CC4)cc3F)ccnc2cc1OCCCN1CCOCC1 [Foretinib] (partner 0.25 µM)
How it was run: as §1

## NCI-H596
Carfilzomib + Pictilisib; first compound 0.001 µM
  relative viability: 0.365
Carfilzomib + Pictilisib; first compound 0.003162 µM
  relative viability: 0.425
Carfilzomib + Pictilisib; first compound 0.01 µM
  relative viability: 0.398
Carfilzomib + Pictilisib; first compound 0.03162 µM
  relative viability: 0.259
Carfilzomib + Pictilisib; first compound 0.1 µM
  relative viability: 0.18
Crizotinib + Vorinostat; first compound 0.01 µM
  relative viability: 0.638
Crizotinib + Vorinostat; first compound 0.03162 µM
  relative viability: 0.681
Crizotinib + Vorinostat; first compound 0.1 µM
  relative viability: 0.742
Crizotinib + Vorinostat; first compound 0.3162 µM
  relative viability: 0.62
Crizotinib + Vorinostat; first compound 1 µM
  relative viability: 0.748
Carfilzomib + Olaparib; first compound 0.001 µM
  relative viability: 0.691
Carfilzomib + Olaparib; first compound 0.003162 µM
  relative viability: 0.704
Carfilzomib + Olaparib; first compound 0.01 µM
  relative viability: 0.727
Carfilzomib + Olaparib; first compound 0.03162 µM
  relative viability: 0.552
Carfilzomib + Olaparib; first compound 0.1 µM
  relative viability: 0.186
Crizotinib + Foretinib; first compound 0.01 µM
  relative viability: 0.854
Crizotinib + Foretinib; first compound 0.03162 µM
  relative viability: 0.898
Crizotinib + Foretinib; first compound 0.1 µM
  relative viability: 0.85
Crizotinib + Foretinib; first compound 0.3162 µM
  relative viability: 1.11
Crizotinib + Foretinib; first compound 1 µM
  relative viability: 0.835

## NCI-H647
Carfilzomib + Pictilisib; first compound 0.003162 µM
  relative viability: 0.562
Carfilzomib + Pictilisib; first compound 0.01 µM
  relative viability: 0.397
Carfilzomib + Pictilisib; first compound 0.03162 µM
  relative viability: 0.0769
Carfilzomib + Pictilisib; first compound 0.1 µM
  relative viability: 0.036
Crizotinib + Vorinostat; first compound 0.03162 µM
  relative viability: 0.71
Crizotinib + Vorinostat; first compound 0.1 µM
  relative viability: 0.575
Crizotinib + Vorinostat; first compound 0.3162 µM
  relative viability: 0.764
Crizotinib + Vorinostat; first compound 1 µM
  relative viability: 0.643
Carfilzomib + Olaparib; first compound 0.001 µM
  relative viability: 0.641
Carfilzomib + Olaparib; first compound 0.003162 µM
  relative viability: 0.644
Carfilzomib + Olaparib; first compound 0.01 µM
  relative viability: 0.0662
Carfilzomib + Olaparib; first compound 0.03162 µM
  relative viability: 0.0256
Carfilzomib + Olaparib; first compound 0.1 µM
  relative viability: 0.023
Crizotinib + Foretinib; first compound 0.01 µM
  relative viability: 1.2
Crizotinib + Foretinib; first compound 0.03162 µM
  relative viability: 1.24
Crizotinib + Foretinib; first compound 0.1 µM
  relative viability: 1.19
Crizotinib + Foretinib; first compound 0.3162 µM
  relative viability: 1.18
Crizotinib + Foretinib; first compound 1 µM
  relative viability: 1.22

## NCI-H650
Carfilzomib + Pictilisib; first compound 0.001 µM
  relative viability: 0.83
Carfilzomib + Pictilisib; first compound 0.003162 µM
  relative viability: 1.06
Carfilzomib + Pictilisib; first compound 0.01 µM
  relative viability: 1.01
Carfilzomib + Pictilisib; first compound 0.03162 µM
  relative viability: 0.385
Carfilzomib + Pictilisib; first compound 0.1 µM
  relative viability: 0.189
Crizotinib + Vorinostat; first compound 0.01 µM
  relative viability: 0.528
Crizotinib + Vorinostat; first compound 0.03162 µM
  relative viability: 0.414
Crizotinib + Vorinostat; first compound 0.1 µM
  relative viability: 0.396
Crizotinib + Vorinostat; first compound 1 µM
  relative viability: 0.444
Carfilzomib + Olaparib; first compound 0.001 µM
  relative viability: 0.363
Carfilzomib + Olaparib; first compound 0.003162 µM
  relative viability: 0.382
Carfilzomib + Olaparib; first compound 0.01 µM
  relative viability: 0.414
Carfilzomib + Olaparib; first compound 0.03162 µM
  relative viability: 0.247
Carfilzomib + Olaparib; first compound 0.1 µM
  relative viability: 0.112
Crizotinib + Foretinib; first compound 0.01 µM
  relative viability: 1.03
Crizotinib + Foretinib; first compound 0.03162 µM
  relative viability: 0.998
Crizotinib + Foretinib; first compound 0.1 µM
  relative viability: 1.03
Crizotinib + Foretinib; first compound 0.3162 µM
  relative viability: 0.977
Crizotinib + Foretinib; first compound 1 µM
  relative viability: 0.99

## NCI-H661
Carfilzomib + Pictilisib; first compound 0.001 µM
  relative viability: 0.391
Carfilzomib + Pictilisib; first compound 0.003162 µM
  relative viability: 0.458
Carfilzomib + Pictilisib; first compound 0.01 µM
  relative viability: 0.457
Carfilzomib + Pictilisib; first compound 0.03162 µM
  relative viability: 0.483
Carfilzomib + Pictilisib; first compound 0.1 µM
  relative viability: 0.238
Crizotinib + Vorinostat; first compound 0.01 µM
  relative viability: 0.706
Crizotinib + Vorinostat; first compound 0.03162 µM
  relative viability: 0.777
Crizotinib + Vorinostat; first compound 0.1 µM
  relative viability: 0.731
Crizotinib + Vorinostat; first compound 0.3162 µM
  relative viability: 0.841
Crizotinib + Vorinostat; first compound 1 µM
  relative viability: 0.775
Carfilzomib + Olaparib; first compound 0.001 µM
  relative viability: 0.731
Carfilzomib + Olaparib; first compound 0.003162 µM
  relative viability: 0.806
Carfilzomib + Olaparib; first compound 0.01 µM
  relative viability: 0.725
Carfilzomib + Olaparib; first compound 0.03162 µM
  relative viability: 0.684
Carfilzomib + Olaparib; first compound 0.1 µM
  relative viability: 0.312
Crizotinib + Foretinib; first compound 0.01 µM
  relative viability: 0.941
Crizotinib + Foretinib; first compound 0.1 µM
  relative viability: 1.01
Crizotinib + Foretinib; first compound 0.3162 µM
  relative viability: 1.08
Crizotinib + Foretinib; first compound 1 µM
  relative viability: 0.98
